# In patent US20220087275A1, “MAGNESIUM ION AS ANTIBACTERIAL AGENT” (THE STATE OF ISRAEL, MINISTRY OF AGRICULTURE & RURAL …, priority 2016, published 2022):
# Read-outs that look alike come from different tables or passages of the source.
# Key:
# [1] = tested on: tapA operon; test: β-Galactosidase transcriptional fusion, matrix gene expression (tapA); type: cell-based, Bacillus subtilis; conditions: for expression of the tapA operon: similar concentrations of NaCl or CaCl2
# Text: (§1) To analyze the effect of magnesium ions on matrix gene expression a transcriptional fusions of the promoters for eps and tapA to the gene encoding β galactosidase were used. Samples of generated pellicles as described above were collected and resuspended in phosphate-buffered saline (PBS) buffer. Typical long bundled chains of cells in the biofilm colony were disrupted using mild sonication as described previously. Optical density of the cell samples was normalized using OD600. One milliliter of cell suspensions was collected and assayed for (3-Galactosidase activity as described previously.
# (§2) The effect of Mg^2+ ions on matrix gene expression was examined by using transcriptional fusions of the promoters for epsA-O and tapA to the gene encoding β galactosidase.
# [2] = tested on: Bacillus subtilis wild strain NCIB3610; test: Pellicle (biofilm) formation in LBGM broth; type: cell-based; conditions: for biofilm formation by B. subtilis: NaCl or CaCl2 added to LBGM, results not shown; for pellicle formation by B. subtilis: LBGM medium, 30° C., 24 h
# Description: Plates were incubated at 30° C. for 24 h.
# [3] = tested on: epsA-O operon; test: β-Galactosidase transcriptional fusion, matrix gene expression (eps); type: cell-based, Bacillus subtilis; conditions: for expression of the eps operon: similar concentrations of NaCl or CaCl2
# Text: as §1, §2
# [4] = tested on: B. subtilis NCIB3610; conditions: LBGM, tested concentrations (5-100 mM MgCl2)
# Description: Initially, the cells were grown in shaking cultures over night at 23° C./150 rpm in LB to around 2×10^9 CFU per ml. […] The absorbance of the cultures at 600 nm was measured periodically for each culture for 9 hours. Each condition had 3 replicates, and the growth curve experiments were repeated twice.
# [5] = Description: In order to examine milk clotting parameters, milk samples obtained from the dairy farm of the Agricultural Research Organization (ARO; Bet Dagan, Israel). […] Milk-clotting parameters such as rennet clotting time (RCT; min) and curd firmness (CF; V) after 90 min (CF-90) which are measured with an Optigraph instrument (Ysebaert, Frepillon, France) as described by Leitner et al. (2011). Results are presented in a graph. The point in which the curve is split into two curves, represents the rennet Clotting Time (RCT), which is the time between the addition of the clotting enzyme and the beginning of the coagulation process. The curd firmness is derived from the distance of the two curves in the graph 30 min after the addition of the clotting enzyme, or 90 minutes after the addition of the clotting enzyme.
# [6] = tested on: B. subtilis
# Description: The effect of magnesium ions on biofilm formation within cow's milk was examined. A skilled artisan will appreciate that magnesium concentration within cow's milk typically ranges between 4-6 mM.
# [7] = tested on: Bacillus subtilis NCIB 3610
# Description: Additional experiments were conducted in order to evaluate the effect of magnesium ions on colony type biofilm formation by Bacillus subtilis on a solid surface. First a starter culture was prepared by growing bacteria from the strain Bacillus subtilis NCIB 3610 in an LB (Lysogeny broth) medium at 37° C., 150 rpm for 5 hours. […] Following these steps, 3 μl of the starter culture were spotted onto each of the solid biofilm promoting mediums. The samples were incubated at 30° C. for 72 hours prior to analysis. Images were taken using a Zeiss Stemi 2000-C microscope with an axiocam ERc 5s camera.
# [8] = 50 mM or 100 mM MgCl2; B. subtilis culture, 5 hours, 37° C.
# Description: Cultures were incubated for 5 hours at 37° C. and 50 rpm and pH was measured every hour using pH strips.
# [9] = tested on: B. subtilis cells (YC161 with Pspank-gfp); conditions: 25 mM MgCl2 and higher; 24 h in LBGM
# Description: For fluorescent microscopy, the strain YC161 that produced GFP constitutively, was used. The strain was first grown in shaking culture for 5 h 37° C./150 rpm in LB to around 1×10^8 CFU per ml. Next, 5 μl (around 5×10^5 CFU) of suspension from the generated culture was introduced into 4 ml of LBGM medium and incubated at 30° C. for 24 h statically. Afterwards, one milliliter of suspension from each sample was collected, mildly sonicated (10 sec/20% Amp/5) and centrifuged at 5000 rpm for 2 min. Next, the supernatant was removed and the pellet was re-suspended by pipetting. For microscopic observation, 34, from the samples were transferred onto a glass slide and visualized in a transmitted light microscope using Nomarski differential interference contrast (DIC), at ×40 magnification. A confocal laser scanning microscope was used to visualize GFP expression of strain YC161 using an Olympus IX81 confocal laser scanning microscope (Japan) equipped with 488 nm argon-ion and 543 nm helium neon lasers.
# Next, the effect of magnesium ions was visualized microscopically by testing bundling phenotype of fluorescently tagged B. subtilis cells (YC161 with Pspank-gfp), that produce GFP constitutively.
# [10] = tested on: Bacillus subtilis wild strain NCIB3610; conditions: high concentrations of Mg ions; solid LBGM, 30° C., 72 h
# Description: For routine growth, all strains were propagated in Lysogeny broth (LB; 10 g of tryptone, 5 g of yeast extract and 5 g of NaCl per liter) or on solid LB medium supplemented with 1.5% agar. For biofilm generation, bacteria were grown to stationary phase in LB medium at 37° C. in shaking culture to around 1×10^8 CFU per ml. Biofilms were generated at 30° C. in the biofilm promoting medium LBGM (LB+1% (v/v) glycerol+0.1 mM MnSO4). […] For colony type biofilm formation, 3 μl of the cells (around 3×10^5 CFU) was spotted onto LBGM medium solidified with 1.5% agar as described previously. Plates were incubated at 30° C. for 72 h prior to analysis. For pellicle formation, 5 μl of the cells (around 5×10^5 CFU) was mixed within 4 ml of LBGM broth in 12-well plates (Costar). Plates were incubated at 30° C. for 24 h. Images were taken using a Zeiss Stemi 2000-C microscope with an axiocam ERc 5s camera.
# [11] = tested on: B. subtilis; conditions: at 50 mM and higher (50 and 80 mM tested)
# Text: Further, the effect of magnesium ions on biofilm formation by B. subtilis within orange juice enriched medium, was examined.
# [12] = tested on: B. subtilis; conditions: milk supplemented with additional 3 mM or 5 mM MgCl2
# Text: The effect of increase in the concentration of magnesium ions was examined. […] The survival rate of bacteria following pasteurization was examined.
# [13] = tested on: tapA operon; conditions: increase of 1, 3 or 5 mM; particularly 5 mM MgCl2
# Description: The effect of increase in concentration of Mg′ within milk on the expression of tapA operon, which is one of the major operon for matrix production, was examined. For this purpose, B. subtilis were grown within cow's milk and cow's milk with an increase of 1 mM, 3 mM or 5 mM in concentration of magnesium ions. Further, transcriptional fusions of tapA promoter to the gene encoding cyan fluorescent protein (CFP) were utilized.
# [14] = elevated concentrations of Mg2+ ions, pellicles in LBGM
smiles,measurement,setting,value
[Ca+2].[Cl-].[Cl-] [CaCl2],expression of the tapA operon,[1],not downregulated in a similar manner
same,biofilm formation by B. subtilis,[2],none of those compounds could inhibit the biofilm formation in the same manner as MgCl2
same,expression of the eps operon,[3],not downregulated in a similar manner
"[Cl-].[Cl-].[Mg+2] [MgCl2, magnesium chloride]",bacterial growth,[4],did not affect bacterial growth
same,decrease in RCT,[5]; addition of 1 mM MgCl2,about 32%
same,increase in curd firmness,[5]; addition of 1 mM MgCl2,about 37%
same,decrease in RCT,[5]; addition of 3 mM MgCl2,~51%
same,increase in curd firmness,[5]; addition of 3 mM MgCl2,~54%
same,decrease in RCT,[5]; addition of 5 mM MgCl2,~62%
same,increase in curd firmness,[5]; addition of 5 mM MgCl2,~69%
same,decrease in RCT,[5]; addition of 7 mM MgCl2,~70%
same,increase in curd firmness,[5]; addition of 7 mM MgCl2,~82%
same,decrease in RCT,[5]; addition of 10 mM MgCl2,~84%
same,increase in curd firmness,[5]; addition of 10 mM MgCl2,~84%
same,decrease in RCT,[5]; addition of 15 mM MgCl2,~73%
same,increase in curd firmness,[5]; addition of 15 mM MgCl2,~90%
same,decrease in RCT,[5]; addition of 20 mM MgCl2,~74%
same,increase in curd firmness,[5]; addition of 20 mM MgCl2,~72%
same,biofilm bundles within milk,[6]; 5 mM increase of MgCl2 concentration,biofilm bundles are almost totally diminished
same,biofilm formation by B. subtilis within milk,"[6]; cow's milk, magnesium increase of 1, 3 or 5 mM",inhibit biofilm formation by B. subtilis within milk
same,bacterial growth within milk,[6]; increased Mg ions concentration within milk,not significantly affected
same,biofilm formation by B. subtilis within milk,[6]; magnesium concentration increased by 1 mM,inhibitory effect of Mg2+ ions is notable
same,decrease in tapA expression,[1]; [14],~14.5 fold
same,pellicle formation by B. subtilis,[2],inhibited notably pellicle formation by B. subtilis in a concentration dependent manner
same,reduction in eps expression,[3]; [14],around 4 fold
same,biofilm formation by B. subtilis on solid surface,[7]; magnesium ions 20 mM or 50 mM spread onto a solid surface,reduced biofilm formation
same,"biofilm formation onto pre-treated surface, stronger effect",[7]; solution of 20 mM MgCl2 as printed (second sentence),inhibitory effect is more significant
same,biofilm formation by B. subtilis onto pre-treated surface,"[7]; surface spread with solution of 20 mM MgCl2, 30° C., 72 h",inhibitory effect on biofilm formation
same,pH of the milk,[8],does not affect the pH of the milk
same,bundling ability of B. subtilis cells,[9],significant reduction in bundling ability
same,colony type biofilm formation,[10],inhibited significantly
same,colony type biofilm formation within orange juice enriched medium,[11],inhibits colony type biofilm formation
same,susceptibility of bacteria to heat pasteurization,[12],increase the susceptibility of bacteria to heat pasteurization
same,expression of the tapA operon within milk,[13],reduced drastically
"O=S(=O)([O-])[O-].[Mg+2] [MgSO4, magnesium sulfate]",pellicle formation by B. subtilis,[2],inhibited the pellicle formation
[Cl-].[Na+] [NaCl],expression of the tapA operon,[1],not downregulated in a similar manner
same,biofilm formation by B. subtilis,[2],none of those compounds could inhibit the biofilm formation in the same manner as MgCl2
same,expression of the eps operon,[3],not downregulated in a similar manner
